25 compounds from patent publication US20100119599A1 (ARCHER PHARMACEUTICALS, INC., priority 2006, published 2010) can be followed below.

Where two headings read alike, the source gives them in different places.

In one assay the test system is Aβ1-42. Briefly: Measurement of Aβ1-42 in culture medium of 7W WT APP751 CHO cells by ELISA.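 As to Aβ1-42 (% of control): 5 µM test compound but RI-coded compounds at 10 µM for 24 hours.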 The format is cell-based, Chinese hamster. The settings on record: for Aβ1-42 (% of control): CHO cells that overexpress APP751, zero = below the detection limit of the assay; for activity at 5 µM: Cricetulus griseus, 5 μM test compound, CHO cells stably transfected with human APP751, culture medium, ELISA, control DMSO.

Another assay deals with Aβ1-40. The experiment in a line: Measurement of Aβ1-40 in culture medium of 7W WT APP751 CHO cells by ELISA.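 As to all read-outs here: 5 µM test compound but RI-coded compounds at 10 µM for 24 hours.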 In kind it is cell-based, Chinese hamster. The settings on record: for Aβ1-40 (% of control): CHO cells that overexpress APP751, zero = below the detection limit of the assay; for activity at 5 µM: Cricetulus griseus, 5 μM test compound, CHO cells stably transfected with human APP751, culture medium, ELISA, control DMSO.

[1] abbreviates: Table 3, read-out: Aβ-42 (% of control).
The mark [2] stands for this setting: Table 1, 0 = no detectable amount, read-out: Aβ1-42 (% of control).
Where [3] appears, read: Table 1, 0 = no detectable amount.

For the compound `CCOc1cc(/C=c2\sc3n(c2=O)C(N)=C(C#N)C(c2ccc(OCC(N)=O)c(OCC)c2)C=3C#N)ccc1OCC(N)=O` (centres unmarked) [ST025037, 2-[4-(5-amino-2-{[4-(carbamoylmethoxy)-3-ethoxyphenyl]methylene}-6,8-dicyano-3-oxo(4,7-dihydro-1,3-thiazolidino[3,2-a]pyridin-7-yl))-2-ethoxyphenoxy]acetamide], the “Aβ1-42 (% of control)” value in the assay with Aβ1-42 is 67.1 % of control. The “Aβ1-40 (% of control)” value in the assay with Aβ1-40 is listed as 80.02 % of control.
As for `CCOC(=O)C1=c2s/c(=C/c3ccccc3C(F)(F)F)c(=O)n2C(N)=C(C#N)C1c1ccccc1C(F)(F)F` (centres unmarked) [ST025089, ethyl 5-amino-6-cyano-3-oxo-7-[2-(trifluoromethyl)phenyl]-2-{[2-(trifluoromethyl)phenyl]methylene}-4,7-dihydro-1,3-thiazolidino[3,2-a]pyridine-8-carboxylate], in the assay with Aβ1-42, the “Aβ1-42 (% of control)” value is 33.69 % of control. For the same compound, in the assay on Aβ1-40, the “Aβ1-40 (% of control)” value is given as 48.71 % of control.
On to `COc1ccc(C2C(C#N)=C(N)NC(C(C#N)C#N)=C2C#N)cc1OC` (centres unmarked) [ST025482, 6-amino-2-(dicyanomethyl)-4-(3,4-dimethoxyphenyl)-1,4-dihydropyridine-3,5-dicarbonitrile], for which the “Aβ1-42 (% of control)” value in the assay with Aβ1-42 was 45.1 % of control. Besides, the “Aβ1-40 (% of control)” value in the assay with Aβ1-40 is reported as 62.83 % of control.
`CCOC(=O)C1=C(C)N(c2nonc2NC(C)=O)C(N)=C(C#N)C1c1ccc(Cl)cc1Cl` (centres unmarked) [ST026470, ethyl 1-[4-(acetylamino)(1,2,5-oxadiazol-3-yl)]-6-amino-4-(2,4-dichlorophenyl)-5-cyano-2-methyl-1,4-dihydropyridine-3-carboxylate]: the “Aβ1-42 (% of control)” value in the assay with Aβ1-42 was 67.48 % of control. Also, in the assay on Aβ1-40, the “Aβ1-40 (% of control)” value was 81.7 % of control.
With `O=C(N=C1CC(c2ccccc2)N(c2ccncc2)CC1[N+](=O)[O-])Nc1cccnc1` (centres unmarked) [ST026819, 2-(5-nitro-2-phenyl-1-(4-pyridyl)(4-6-hydropyridylidene))-N-(3-pyridyl)-2-azaace tamide], the activity at 5 µM in the assay with Aβ1-42 (setting [1]) is 57.8%; in the assay with Aβ1-40 (Table 3), 64.9%.
Consider `COC(=O)C1=C(C)NC2=C(C(=O)CCC2)C1c1ccc(Br)cc1` (centres unmarked) [ST028547, methyl 4-(4-bromophenyl)-2-methyl-5-oxo-1,4,6,7,8-pentahydroquinoline-3-carboxylate], for which the results for the activity at 5 µM in the assay on Aβ1-42 (setting [2]) and with Aβ1-40 (setting [3]) were 45.3% and 72.1%, respectively.
The corresponding values for `CCOC(=O)C1=C(C)NC2=C(C(=O)CCC2)C1c1ccc(OCc2ccccc2Cl)c(OC)c1` (centres unmarked) [ST028591, ethyl 4-{4-[(2-chlorophenyl)methoxy]-3-methoxyphenyl}-2-methyl-5-oxo-1,4,6,7,8-pentahydroquinoline-3-carboxylate] are 69.6% and 98.3%.
Take `COC(=O)C1=C(C)NC2=C(C(=O)CC(C)(C)C2)C1c1ccc(OCc2cccc(Cl)c2)c(OC)c1` (centres unmarked) [ST028592, methyl 4-{4-[(3-chlorophenyl)methoxy]-3-methoxyphenyl}-2,7,7-trimethyl-5-oxo-1,4,6,7,8-pentahydroquinoline-3-carboxylate]: the activity at 5 µM in the assay with Aβ1-42 (setting [2]) was determined as 97.1%; in the assay with Aβ1-40 (setting [3]), 28.3%.
`COC(=O)C1=C(C)NC2=C(C(=O)CC(C)(C)C2)C1c1ccc(OCc2ccc(Cl)cc2)c(OC)c1` (centres unmarked) [ST028595, methyl 4-{4-[(4-chlorophenyl)methoxy]-3-methoxyphenyl}-2,7,7-trimethyl-5-oxo-1,4,6,7,8-pentahydroquinoline-3-carboxylate]: the results for the activity at 5 µM in the assay on Aβ1-42 (setting [2]) and in the assay on Aβ1-40 (setting [3]) were 98.9% and 34.4%, respectively.
Consider `CCOC(=O)C1=C(C)NC2=C(C(=O)CCC2)C1c1ccc(OCc2ccc(Cl)cc2)c(OC)c1` (centres unmarked) [ST028598, ethyl 4-{4-[(4-chlorophenyl)methoxy]-3-methoxyphenyl}-2-methyl-5-oxo-1,4,6,7,8-pentahydroquinoline-3-carboxylate], for which the figures for the activity at 5 µM with Aβ1-42 (setting [2]) and in the assay on Aβ1-40 (setting [3]) were 71.6% and 27.4%, respectively.
Take `CCOC(=O)C1=C(C)NC2=C(C(=O)CCC2)C1c1ccc(OCc2ccc(C)cc2)c(OC)c1` (centres unmarked) [ST028606, ethyl 4-{3-methoxy-4-[(4-methylphenyl)methoxy]phenyl}-2-methyl-5-oxo-1,4,6,7,8-pentahydroquinoline-3-carboxylate]: the activity at 5 µM is 52% in the assay with Aβ1-42 (setting [2]) and 24.2% in the assay with Aβ1-40 (setting [3]).
Take `COC(=O)C1=C(C)NC2=C(C(=O)CC(C)(C)C2)C1c1ccc(OCc2cccc(C(F)(F)F)c2)c(OC)c1` (centres unmarked) [ST028607, methyl 4-(3-methoxy-4-{[3-(trifluoromethyl)phenyl]methoxy}phenyl)-2,7,7-trimethyl-5-oxo-1,4,6,7,8-pentahydroquinoline-3-carboxylate]: the results for the activity at 5 µM with Aβ1-42 (setting [2]) and in the assay on Aβ1-40 (setting [3]) were 63.3% and 23.8%, respectively.
Consider `COC(=O)C1=CN(Cc2ccc(F)cc2)C=C(C(=O)OC)C1c1ccc(OC)cc1OC` [ST038081, methyl 4-(2,4-dimethoxyphenyl)-1-[(4-fluorophenyl)methyl]-5-(methoxycarbonyl)-1,4-dihydropyridine-3-carboxylate], for which the “Aβ1-42 (% of control)” value with Aβ1-42 is 92.93 % of control. Moreover, in the assay on Aβ1-40, the “Aβ1-40 (% of control)” value is given as 36.22 % of control.
In the case of `COC(=O)C1=CN(Cc2ccc3c(c2)OCO3)C=C(C(=O)OC)C1c1cccs1` [ST038112, methyl 1-(2H-benzo[3,4-d]1,3-dioxolen-5-ylmethyl)-5-(methoxycarbonyl)-4-(2-thienyl)-1,4-dihydropyridine-3-carboxylate], the “Aβ1-42 (% of control)” value with Aβ1-42 was 99.52 % of control. Further, in the assay on Aβ1-40, the “Aβ1-40 (% of control)” value is 47.7 % of control.
On to `COC(=O)C1=CN(Cc2ccc3c(c2)OCO3)C=C(C(=O)OC)C1c1ccc(OC)c(OC)c1` [ST038114, methyl 1-(2H-benzo[3,4-d]1,3-dioxolen-5-ylmethyl)-4-(3,4-dimethoxyphenyl)-5-(methoxycarbonyl)-1,4-dihydropyridine-3-carboxylate], for which the “Aβ1-42 (% of control)” value in the assay on Aβ1-42 is listed as 95.92 % of control. In addition, the “Aβ1-40 (% of control)” value in the assay on Aβ1-40 is recorded as 48 % of control.
Take `COC(=O)C1=CN(Cc2ccc(OC)c(OC)c2)C=C(C(=O)OC)C1c1cccs1` [ST038115, methyl 1-[(3,4-dimethoxyphenyl)methyl]-5-(methoxycarbonyl)-4-(2-thienyl)-1,4-d ihydropyridine-3-carboxylate]: in the assay on Aβ1-42, the “Aβ1-42 (% of control)” value is listed as 91 % of control. Moreover, the “Aβ1-40 (% of control)” value in the assay on Aβ1-40 is listed as 42.45 % of control.
Take `COC(=O)C1=CN(Cc2ccc(OC)c(OC)c2)C=C(C(=O)OC)C1c1ccc(OC)c(OC)c1` [ST038162, methyl 4-(3,4-dimethoxyphenyl)-1-[(3,4-dimethoxyphenyl)methyl]-5-(methoxycarbonyl)-1,4-dihydropyridine-3-carboxylate]: the “Aβ1-42 (% of control)” value with Aβ1-42 is 58.62 % of control. Further, in the assay on Aβ1-40, the “Aβ1-40 (% of control)” value is 49.65 % of control.
For `COC(=O)C1=CN(C2CC2)C=C(C(=O)OC)C1c1cccc(F)c1` [ST038735, methyl 1-cyclopropyl-4-(3-fluorophenyl)-5-(methoxycarbonyl)-1,4-dihydropyridine-3-carboxylate], the “Aβ1-42 (% of control)” value in the assay with Aβ1-42 is reported as 98.52 % of control. Moreover, in the assay with Aβ1-40, the “Aβ1-40 (% of control)” value was 65.36 % of control.
Turning to `COC(=O)C1=CN(C2CC2)C=C(C(=O)OC)C1c1ccc(Cl)cc1` [ST038738, methyl 4-(4-chlorophenyl)-1-cyclopropyl-5-(methoxycarbonyl)-1,4-dihydropyridine-3-carboxylate], the “Aβ1-42 (% of control)” value in the assay on Aβ1-42 is recorded as 52.59 % of control. Besides, the “Aβ1-40 (% of control)” value in the assay on Aβ1-40 is recorded as 94.49 % of control.
Turning to `N#CC1=C(N)N(c2ccc(F)cc2)C2=C(C(=O)CC(c3ccccc3)C2)C1c1ccsc1` (centres unmarked) [ST040993, 2-amino-1-(4-fluorophenyl)-5-oxo-7-phenyl-4-(3-thienyl)-1,4,6,7,8-pentahydroquinoline-3-carbonitrile], the values for the activity at 5 µM in the assay on Aβ1-42 (setting [2]) and in the assay with Aβ1-40 (setting [3]) were 46.9% and 65.7%, respectively.
Regarding `N#CC1=C2NC(=O)c3c(sc4c3CCCCC4)N2C2=C(C(=O)CCC2)C1c1ccc(F)cc1` (centres unmarked) [ST041668, 5-(4-fluorophenyl)-4,8-dioxo-1,2,3,5,7,9,10,11,12,13,15-undecahydrocyclohepta[1,2-b]quinolino[1′,2′-2,1]pyrimidino[5,6-d]thiophene-6-carbonitrile], the activity at 5 µM in the assay with Aβ1-42 (setting [2]) came to 27.9%; in the assay with Aβ1-40 (setting [3]), 88.7%.
In the case of `CC1=C(C(=O)Nc2ccccc2)C(c2cccs2)C(C#N)=C(SCC(=O)Nc2ccc(C)c(C)c2)N1` (centres unmarked) [ST041706, N-(3,4-dimethylphenyl)-2-[3-cyano-6-methyl-5-(N-phenylcarbamoyl)-4-(2-thienyl) (2-1,4-dihydropyridylthio)]acetamide], the “Aβ1-42 (% of control)” value in the assay with Aβ1-42 was 50.13 % of control. Further, the “Aβ1-40 (% of control)” value in the assay on Aβ1-40 is 68.73 % of control.
As to `N#CC1=C(N)N(c2sc3c(c2C#N)CCCC3)C2=C(CCC2)C1(C(F)(F)F)C(F)(F)F` [ST044920, 2-[2-amino-4,4-bis(trifluoromethyl)-3-cyano-1,4,5,6,7-pentahydrocyclopenta[1,2-b]pyridinyl]-4,5,6,7-tetrahydrobenzo[b]thiophene-3-carbonitrile], the activity at 5 µM was found to be 48.2% in the assay on Aβ1-42 (setting [1]) and 76.9% in the assay with Aβ1-40 (Table 3).
Regarding `COC(=O)C1=C(C)NC2=C(C(=O)CC(c3cccs3)C2)C1c1cc(OC)c(Br)cc1OC` (centres unmarked) [ST045143, methyl 4-(4-bromo-2,5-dimethoxyphenyl)-2-methyl-5-oxo-7-(2-thienyl)-1,4,6,7,8-pentahydroquinoline-3-carboxylate], the activity at 5 µM in the assay with Aβ1-42 (setting [2]) was determined as 16%; with Aβ1-40 (setting [3]), 22.9%.
On to `COC(=O)C1=CN(CC2CCCO2)C=C(C(=O)OC)C1c1ccc(Cl)c(Cl)c1` (centres unmarked) [ST045237, methyl 4-(3,4-dichlorophenyl)-5-(methoxycarbonyl)-1-(oxolan-2-ylmethyl)-1,4-dihydropyridine-3-carboxylate], for which the “Aβ1-42 (% of control)” value in the assay on Aβ1-42 is 50.77 % of control. For the same compound, in the assay on Aβ1-40, the “Aβ1-40 (% of control)” value was 60.46 % of control.
